Laboratory results: PMC12399242 (Acta Pharmaceutica Sinica. B, 2025)
“Also recorded” adds a separate entry of the source. Like-named read-outs stand apart in the source and are kept apart here.

How the values were obtained:
[1] = tested on: ICR mice; assay: Acute toxicity assay in ICR mice; assay type: in vivo
Experimental: A12 was suspended in PEG400/normal saline (80/20, v/v) to achieve a concentration of 100 mg/ml. Sixteen ICR mice (eight male/eight female, 18–22 g) were assigned into 4 groups randomly, and each group contained 4 male mice or 4 female mice (n = 4). […] Over the next two weeks, the mortality, body weight, and abnormal behaviors of these mice were monitored daily. All mice were dissected after blood collection on Day 14, and several vital organs were removed and then assessed for pathological damage by HE staining. The collected blood was submitted for blood biochemistry testing.

[2] = tested on: HIV-1 F227L + V106A; assay: microbe, parasite or virus in culture; assay type: cell-based; settings: Human immunodeficiency virus 1, MT4, read-out: EC50 F227L + V106A
[3] = tested on: HIV-1 Y188L; assay: Antiviral activity against HIV-1 mutant Y188L in MT-4 cells; assay type: cell-based; settings: Human immunodeficiency virus 1, MT4, read-out: EC50 Y188L
[4] = biological target: T1, CYP2D6 (Homo sapiens, UniProt P10635); assay: CYP enzyme inhibition assay, CYP2D6; assay type: in vitro ADME; settings: human liver microsomes; read-out: IC50 CYP2D6
T1 construct: An incubation system of human liver microsomes (20 μL, 1.5 mg/mL); from tissue; host or cells: human liver microsomes
T1 sequence (P10635 whole entry): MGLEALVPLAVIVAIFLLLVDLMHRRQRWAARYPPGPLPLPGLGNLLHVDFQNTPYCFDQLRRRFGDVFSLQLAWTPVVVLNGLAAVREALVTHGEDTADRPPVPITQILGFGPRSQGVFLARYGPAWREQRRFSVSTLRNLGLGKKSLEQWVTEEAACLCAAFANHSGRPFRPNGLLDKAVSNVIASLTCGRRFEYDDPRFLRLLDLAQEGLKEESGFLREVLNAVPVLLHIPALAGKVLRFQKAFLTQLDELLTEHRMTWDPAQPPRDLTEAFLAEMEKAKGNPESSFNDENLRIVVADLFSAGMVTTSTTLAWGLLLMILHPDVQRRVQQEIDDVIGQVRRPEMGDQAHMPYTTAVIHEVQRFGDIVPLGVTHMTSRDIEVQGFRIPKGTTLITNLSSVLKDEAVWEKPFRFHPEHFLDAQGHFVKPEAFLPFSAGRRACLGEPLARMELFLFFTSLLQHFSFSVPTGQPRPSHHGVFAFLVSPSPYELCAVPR
Experimental: (§1) An incubation system of human liver microsomes (20 μL, 1.5 mg/mL), 20 μL probe substrates, and 50 μL test compound in Tris (0.1 mol/L) was pre-incubated at 37 °C for 10 min, and then initiated by adding NADPH (10 μL, 10 mmol/L). The system was incubated for another 15 min and subsequently terminated by 100 μL MeCN containing internal standard (propranolol, nadolol). Finally, the sample was centrifugated to obtain the supernatant for LC‒MS/MS analysis.

[5] = biological target: WT HIV-1 RT (Human immunodeficiency virus type 1 group M subtype B, UniProt P03366); assay: Inhibition of WT HIV-1 RT polymerase activity
Experimental: The anti-HIV-1 activity of A1–A24 and B1–B22 at the cellular or enzyme level were evaluated following our previously reported method[15].

[6] = tested on: six CYP isoenzymes (not named; range over all six); assay: CYP inhibition, six isoenzymes (summary range); assay type: in vitro ADME; settings: human, human liver microsomes
Experimental: as §1

[7] = biological target: T2, CYP2C9 (Homo sapiens, UniProt P11712); assay: CYP enzyme inhibition assay, CYP2C9; assay type: in vitro ADME; settings: human liver microsomes
T2 construct: An incubation system of human liver microsomes (20 μL, 1.5 mg/mL); from tissue; host or cells: human liver microsomes
T2 sequence (P11712 whole entry): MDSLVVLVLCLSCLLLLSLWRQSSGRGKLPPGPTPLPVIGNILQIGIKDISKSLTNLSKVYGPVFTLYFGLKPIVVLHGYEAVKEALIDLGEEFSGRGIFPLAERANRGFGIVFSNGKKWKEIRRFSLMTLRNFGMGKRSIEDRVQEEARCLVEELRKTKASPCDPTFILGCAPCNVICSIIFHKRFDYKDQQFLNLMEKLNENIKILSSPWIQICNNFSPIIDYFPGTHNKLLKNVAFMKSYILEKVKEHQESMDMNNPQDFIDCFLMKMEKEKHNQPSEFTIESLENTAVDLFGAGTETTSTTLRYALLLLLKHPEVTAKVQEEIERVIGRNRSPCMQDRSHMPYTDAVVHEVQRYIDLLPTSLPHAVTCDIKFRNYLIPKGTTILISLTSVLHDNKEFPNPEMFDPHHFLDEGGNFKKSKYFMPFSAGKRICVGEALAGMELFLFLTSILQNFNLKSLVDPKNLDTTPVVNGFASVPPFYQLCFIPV
Experimental: (§2) An incubation system of human liver microsomes (20 μL, 1.5 mg/mL), 20 μL probe substrates, and 50 μL test compound in Tris (0.1 mol/L) was pre-incubated at 37 °C for 10 min, and then initiated by adding NADPH (10 μL, 10 mmol/L). […] Finally, the sample was centrifugated to obtain the supernatant for LC‒MS/MS analysis.

[8] = PK study in SD rats; assay type: in vivo; settings: male, Sprague-Dawley, plasma, SD rat; for half-life: mean ± SD, n = 3; for MRT last: read-out: MRT0–t; for MRT inf: read-out: MRT0–∞
Experimental: All animal treatments were conducted using an approved protocol of Fudan University (2020CHEM-JS-009). A12 was dissolved in a mixture of DMSO/Solutol HS 15/normal saline (10/10/80, v/v/v). Six Sprague–Dawley rats (male, 180−220 g) were assigned into two groups (n = 3) randomly to receive i.v. (1 mg/kg) or p.o. administration (10 mg/kg) of A12. At the time points of 5, 15, 30 min, 1, 2, 4, 6, 8, 10, 12, and 24 h, blood samples were collected and centrifuged (4 °C, 4500 rpm, 10 min) to obtain plasma. Before LC‒MS/MS analysis, the plasma needs to be stored at −80 °C. Subsequently, 120 μL of MeCN containing internal standard was added to 30 μL of plasma. The mixture was shaken and centrifuged (4 °C, 10,000 rpm, 15 min) to afford the supernatant layer for LC‒MS/MS analysis. Finally, The WinNolin software was applied to calculate the pharmacokinetic parameters.

[9] = tested on: HIV-1 K103N; assay: Antiviral activity against HIV-1 mutant K103N in MT-4 cells; assay type: cell-based; settings: Human immunodeficiency virus 1, MT4, read-out: EC50 K103N
[10] = Plasma protein binding assay (equilibrium dialysis); assay type: in vitro ADME; settings: rat plasma, dialysis 37 °C, read-out: plasma protein binding rate (%PPB) (converted)
Experimental: The DMSO solution of A12 was diluted to 100 μmol/L with MeOH:H2O (1:1) and then added to the pre-loaded plasma to obtain plasma samples with a test concentration of 1 μmol/L. Subsequently, 100 μL of control dialysis buffer (phosphate buffer + 0.002% Tween-80) and 100 μL of A12 plasma sample were transferred to the receiver and the donor side of dialysis chambers, respectively, two copies of each sample. The dialysis system was incubated in a shaker (37 °C, 6 h). Upon completion, 20 μL of samples were removed from each of the buffer and plasma chambers. After adding aliquots control plasma, PBS (0.002% Tween-80) respectively, 250 μL methanol solution with internal standard was added into each sample. The solution was mixed and centrifuged (3800 rpm, 10 min) to obtain the supernatant for LC‒MS/MS analysis.

[11] = tested on: HIV-1 Y181C; assay: Antiviral activity against HIV-1 mutant Y181C in MT-4 cells; assay type: cell-based
[12] = biological target: T3, hERG channel (Homo sapiens, UniProt Q12809); assay: hERG inhibition assay (QPatch, CHO-hERG cells); assay type: cell-based; settings: automated QPatch, n = 3
T3 construct: expressed in transfected cells; host or cells: CHO-hERG cells
T3 sequence (Q12809 whole entry): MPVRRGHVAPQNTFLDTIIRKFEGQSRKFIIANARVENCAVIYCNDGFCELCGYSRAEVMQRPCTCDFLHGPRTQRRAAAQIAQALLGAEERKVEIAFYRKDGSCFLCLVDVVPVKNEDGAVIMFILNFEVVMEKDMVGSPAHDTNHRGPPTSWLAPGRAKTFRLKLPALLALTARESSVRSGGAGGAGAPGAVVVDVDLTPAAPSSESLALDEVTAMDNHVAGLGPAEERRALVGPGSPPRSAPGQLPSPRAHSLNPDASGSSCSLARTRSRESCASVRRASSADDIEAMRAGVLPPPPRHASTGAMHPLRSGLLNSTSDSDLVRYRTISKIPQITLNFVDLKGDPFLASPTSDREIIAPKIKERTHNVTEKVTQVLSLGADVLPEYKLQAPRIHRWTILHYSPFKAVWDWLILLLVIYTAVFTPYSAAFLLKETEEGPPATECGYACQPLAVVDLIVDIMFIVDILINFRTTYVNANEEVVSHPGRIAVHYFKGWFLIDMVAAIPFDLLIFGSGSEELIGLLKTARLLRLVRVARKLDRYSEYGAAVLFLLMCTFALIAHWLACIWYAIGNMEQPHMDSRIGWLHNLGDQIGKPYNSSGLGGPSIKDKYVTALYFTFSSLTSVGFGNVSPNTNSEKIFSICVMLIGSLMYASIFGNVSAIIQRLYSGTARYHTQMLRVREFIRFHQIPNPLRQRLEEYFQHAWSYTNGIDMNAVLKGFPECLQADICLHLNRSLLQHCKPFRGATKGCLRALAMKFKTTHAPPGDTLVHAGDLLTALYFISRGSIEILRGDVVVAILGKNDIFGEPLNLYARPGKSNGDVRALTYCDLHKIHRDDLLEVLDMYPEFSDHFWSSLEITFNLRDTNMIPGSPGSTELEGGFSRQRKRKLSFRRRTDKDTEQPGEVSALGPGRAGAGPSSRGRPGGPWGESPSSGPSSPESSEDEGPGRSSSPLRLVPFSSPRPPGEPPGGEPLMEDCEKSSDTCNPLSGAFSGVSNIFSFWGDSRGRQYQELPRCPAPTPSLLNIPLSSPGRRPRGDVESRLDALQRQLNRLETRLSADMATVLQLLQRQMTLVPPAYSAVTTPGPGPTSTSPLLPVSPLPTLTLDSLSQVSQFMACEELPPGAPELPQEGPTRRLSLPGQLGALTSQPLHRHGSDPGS
Experimental: CHO-hERG cells were cultured under the condition of 37 °C and 5% CO2. The culture medium was removed when the cell density grew to 60%–80%. Then, the cells were washed (PBS, 7 mL) and digested. After completion, culture medium (7 mL) was added for neutralization and then centrifuged to obtain the cells, which were subsequently resuspended into 5 mL of culture medium for automated Qpatch assays. The electrophysiology process was recorded using the QPatch instrument. The cells were clamped at an equilibrium potential of −80 mV. Voltage stimulation was conducted every 15 s, which concludes a 5 s, +40 mV depolarizing pulse and a 5 s, −50 mV repolarizing pulse. After 2 min of recording, extracellular fluid was given and recorded for 5 min. […] Each concentration was evaluated on 3 cells (n = 3).

[13] = biological target: T4, CYP3A4-T (Homo sapiens, UniProt P08684); assay: CYP enzyme inhibition assay, CYP3A4-T; assay type: in vitro ADME; settings: human liver microsomes
T4 construct: An incubation system of human liver microsomes (20 μL, 1.5 mg/mL); from tissue; host or cells: human liver microsomes
T4 sequence (P08684 whole entry): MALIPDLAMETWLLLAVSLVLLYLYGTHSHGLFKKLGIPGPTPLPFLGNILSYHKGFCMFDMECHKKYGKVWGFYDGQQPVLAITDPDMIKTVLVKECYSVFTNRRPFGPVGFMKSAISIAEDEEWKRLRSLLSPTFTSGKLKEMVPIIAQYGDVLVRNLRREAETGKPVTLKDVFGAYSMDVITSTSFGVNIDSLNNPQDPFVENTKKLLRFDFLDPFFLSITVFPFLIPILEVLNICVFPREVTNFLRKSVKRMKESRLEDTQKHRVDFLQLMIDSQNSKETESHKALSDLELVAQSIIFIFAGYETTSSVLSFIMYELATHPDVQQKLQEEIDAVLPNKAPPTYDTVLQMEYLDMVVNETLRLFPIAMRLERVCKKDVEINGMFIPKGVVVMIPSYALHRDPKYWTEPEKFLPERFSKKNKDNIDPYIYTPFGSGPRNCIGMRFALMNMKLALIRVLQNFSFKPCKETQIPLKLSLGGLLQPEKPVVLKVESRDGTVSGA
Experimental: as §1

[14] = biological target: CYP3A4-M (Homo sapiens, UniProt P08684); assay: CYP enzyme inhibition assay, CYP3A4-M; assay type: in vitro ADME; design: An incubation system of human liver microsomes (20 μL, 1.5 mg/mL); from tissue; host or cells: human liver microsomes; settings: human liver microsomes
Sequence of CYP3A4-M (P08684 whole entry): as above
Experimental: as §2

[15] = tested on: HIV-1 mutant strains; assay: Antiviral activity against panel of HIV-1 mutant strains (summary ranges); assay type: cell-based

## Cc1cc(-c2ccc(C#N)cc2)cc(C)c1Nc1nc(Nc2ccc(C#N)cc2)ncc1F [A12, 4′-((2-((4-Cyanophenyl)amino)-5-fluoropyrimidin-4-yl)amino)-3′,5′-dimethyl-[1,1′-biphenyl]-4-carbonitrile]
[1]; 2 g/kg i.g., Day 14
  HE staining of vital organs (brain, heart, liver, spleen, lung, kidney): does not show any discernible pathological alteration in vital organs; also recorded: no notable pathological alterations were detected in the vital organs
[1]; 2 g/kg i.g., fourteen days after administration, vs control
  blood biochemical parameters (ALT, AST, CREA, UREA, CKMB): no significant differences in blood biochemical parameters
[1]; male and female, single dose 2 g/kg i.g., 14 days
  mortality: No instances of mortality were recorded
[1]; single dose 2 g/kg
  acute toxicity, overall: excellent tolerance at doses reaching 2 g/kg, without any manifestation of immediate toxicity
[1]; single dose 2 g/kg i.g., 14 days
  abnormal behavior: no noteworthy deviations in behavior were detected
[1]; single dose 2 g/kg i.g., vs control group
  body weight growth: growth patterns similar to that shown by the control group
[2]
  EC50: 157 ± 64 nM
[3]
  EC50: 60 ± 9.2 nM
[4]
  IC50: 14.5 µM
[5]
  IC50: 41 ± 6.9 nM
[6]
  IC50 at 15 min: 6.99 to 25 µM
[7]
  IC50: 6.99 µM
[8]; iv, 1.0 mg/kg i.v.
  AUC(0-inf): 3060 ± 139 ng·h/mL
  AUC(0-t): 3000 ± 142 ng·h/mL
  Cmax: 2350 ± 178 ng/mL
  Tmax: 5 min
  half-life: 332 ± 122 min
  MRT last: 3.25 ± 0.575 h
  MRT inf: 3.89 ± 1.03 h
[8]; oral, 10.0 mg/kg p.o. vs 1.0 mg/kg i.v., read-out: F (oral bioavailability)
  bioavailability: 29.2 ± 6%
[8]; po, 10.0 mg/kg p.o.
  AUC(0-inf): 8930 ± 1850 ng·h/mL
  AUC(0-t): 7340 ± 1890 ng·h/mL
  Cmax: 1390 ± 422 ng/mL
  Tmax: 60 min
  half-life: 814 ± 398 min
  MRT last: 6.18 ± 0.306 h
  MRT inf: 13.5 ± 6.49 h
[9]
  EC50: 1.7 ± 0.5 nM
[10]
  fraction unbound at 6 h, 1 μmol/L: 0.005
[11]; Human immunodeficiency virus 1, MT4, read-out: EC50 Y181C
  EC50: 7.1 ± 1.2 nM
[11]; ratio of EC50 values
  fold higher efficacy against Y181C than toward RES056: 6.2 fold
[12]
  IC50: > 40 µM
[13]
  IC50: > 25 µM
[14]
  IC50: > 25 µM
[15]; Human immunodeficiency virus 1, read-out: EC50 mutant strains L100I, K103N, Y181C, and E138K
  EC50: 1.7 to 7.1 nM
[15]; Human immunodeficiency virus 1, read-out: EC50 seven mutant strains
  EC50: 1.7 to 157 nM
